Drawing on US20240025906A1 (NEURON23, INC., priority 2022, published 2024), this text covers Kd and IC50 for 21 molecules.

For one experiment, the target named is T1, TYK2 JH2 (Homo sapiens, UniProt P29597).
T1 construct: purchased DiscoverX (KINOMEscan KdELECT service); host or cells: E. coli BL21-derived (T7 phage display) or HEK-293
Nature of the experiment: TYK2 JH2 binding assay (KINOMEscan KdELECT competitive binding). The following applies: TYK2 JH2 domain, KINOMEscan KdELECT (Assay A); read-out: Biochemical TYK2_DiscoverX_JH2_BND_Kd. The essentials: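 Test compounds were titrated in 11 three-fold steps against JH2 fragment captured on ligand-loaded magnetic beads, with 1 h incubation at room temperature and DMSO at 0.9%. Eluted kinase was quantified by qPCR, and Kd was fitted from the dose series.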

Experiment [1] deals with JAK1/TYK2 pSTAT5 (Tyr694/699) in THP-1 cell line. As to the kind of experiment: IFNa-stimulated JAK1/TYK2 pSTAT5 (Tyr694/699) inhibition cellular assay, AlphaLISA. It counts as cell-based. The settings on record: Homo sapiens; THP-1 cells, IFNa-stimulated, AlphaLISA (Assay B); read-out: Cellular_THP1_IFNa-pSTATS_TYK2. The essentials: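 THP-1 cells (2e4/well in HBSS) were preincubated with compound (8 points, 6-fold steps from 10000 nM final) for 1 h at 37 °C, then stimulated with IFNa (added at 100 ng/mL) for 30 min. Lysate pSTAT5 was read by AlphaLISA at 615 nm. IC50 came from a 4-parameter fit with bottom 0 and Hill −1.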

T1 sequence (P29597 589-875 limits assumed): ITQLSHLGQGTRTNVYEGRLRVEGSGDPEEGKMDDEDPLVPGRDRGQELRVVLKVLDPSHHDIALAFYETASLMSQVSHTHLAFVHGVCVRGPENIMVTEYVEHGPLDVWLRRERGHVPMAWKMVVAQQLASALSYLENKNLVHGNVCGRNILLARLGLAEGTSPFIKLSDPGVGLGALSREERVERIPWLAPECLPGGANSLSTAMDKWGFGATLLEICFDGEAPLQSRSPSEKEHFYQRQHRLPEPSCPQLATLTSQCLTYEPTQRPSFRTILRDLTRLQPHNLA

As for `CNc1ncc(-c2nc3c(o2)CCC(OC)C3)c2cc(NC(=O)C3CC3)ncc12` (stereo not drawn) [Example 874, N-(5-(5-methoxy-4,5,6,7-tetrahydrobenzo[d]oxazol-2-yl)-8-(methylamino)-2,7-naphthyridin-3-yl)cyclopropanecarboxamide], the Kd at TYK2 JH2 is ≤ 100 nM. Also, the IC50 in experiment [1] is ≤ 500 nM.
Consider `CNc1ncc(-c2cc3cc(OC)ccn3n2)c2cc(NC(=O)C3CC3)ncc12` [Example 875, N-(5-(5-methoxypyrazolo[1,5-a]pyridin-2-yl)-8-(methylamino)-2,7-naphthyridin-3-yl)cyclopropanecarboxamide], for which the Kd at TYK2 JH2 is ≤ 100 nM. The IC50 in experiment [1] is ≤ 500 nM.
For `CCNc1ncc(-c2cc3ccc(N4CCOCC4)cn3n2)c2cc(NC(=O)C3CC3)ncc12` [Example 876, N-(8-(ethylamino)-5-(6-morpholinopyrazolo[1,5-a]pyridin-2-yl)-2,7-naphthyridin-3-yl)cyclopropanecarboxamide] the same measures were ≤ 100 nM and ≤ 500 nM.
With `CNc1ncc(-c2cc3ccc(OC)cn3n2)c2cc(NC(=O)[C@H]3C[C@H]3C)ncc12` [Example 877, (1S,2R)—N-(5-(6-methoxypyrazolo[1,5-a]pyridin-2-yl)-8-(methylamino)-2,7-naphthyridin-3-yl)-2-methylcyclopropane-1-carboxamide], the Kd on TYK2 JH2 was ≤ 100 nM. Also, in experiment [1], the IC50 is ≤ 500 nM.
`CNc1ncc(-c2cnc3ccc(OC)cn23)c2cc(NC(=O)[C@H]3C[C@H]3C)ncc12` [Example 878, (1S,2R)—N-(5-(6-methoxyimidazo[1,2-a]pyridin-3-yl)-8-(methylamino)-2,7-naphthyridin-3-yl)-2-methylcyclopropane-1-carboxamide]: on TYK2 JH2, the Kd was ≤ 100 nM. Further, the IC50 in experiment [1] was > 500 nM.
On to `CNc1ncc(-c2cn3cc(OC)ccc3n2)c2cc(NC(=O)C3CC3)ncc12` [Example 879, N-(5-(6-methoxyimidazo[1,2-a]pyridin-2-yl)-8-(methylamino)-2,7-naphthyridin-3-yl)cyclopropanecarboxamide], for which the Kd at TYK2 JH2 was ≤ 100 nM. Moreover, the IC50 in experiment [1] is ≤ 500 nM.
In the case of `CNc1ncc(-c2cn3cc(N4CCOCC4)ccc3n2)c2cc(NC(=O)C3CC3)ncc12` [Example 880, N-(8-(methylamino)-5-(6-morpholinoimidazo[1,2-a]pyridin-2-yl)-2,7-naphthyridin-3-yl)cyclopropanecarboxamide], at TYK2 JH2, the Kd is ≤ 100 nM. Also, the IC50 in experiment [1] is ≤ 500 nM.
On to `CNc1ncc(-c2cc(-c3ccccc3)[nH]n2)c2cc(NC(=O)C3CC3)ncc12` [Example 881, N-(8-(methylamino)-5-(5-phenyl-1H-pyrazol-3-yl)-2,7-naphthyridin-3-yl)cyclopropanecarboxamide], for which the Kd on TYK2 JH2 is ≤ 100 nM. The IC50 in experiment [1] was > 500 nM.
As for `CNc1ncc(C#Cc2ccc3nnn(C)c3c2)c2cc(NC(=O)C3CC3)nnc12` [Example 882, N-(5-((1-methyl-1H-benzo[d][1,2,3]triazol-6-yl)ethynyl)-8-(methylamino)pyrido[3,4-c]pyridazin-3-yl)cyclopropanecarboxamide], on TYK2 JH2, the Kd was ≤ 100 nM. The IC50 in experiment [1] was ≤ 500 nM.
Take `CNc1ncc(C#Cc2ccc(N3CCO[C@H](C)C3)cc2)c2cc(NC(=O)C3CC3)nnc12` [Example 883, (R)—N-(8-(methylamino)-5-((4-(2-methylmorpholino)phenyl)ethynyl)pyrido[3,4-c]pyridazin-3-yl)cyclopropanecarboxamide]: the Kd on TYK2 JH2 is ≤ 100 nM. Moreover, in experiment [1], the IC50 is ≤ 500 nM.
For the molecule `CNc1ncc(C#Cc2ccc(OC)cn2)c2cc(NC(=O)C3CC3)nnc12` [Example 884, N-(5-((5-methoxypyridin-2-yl)ethynyl)-8-(methylamino)pyrido[3,4-c]pyridazin-3-yl)cyclopropanecarboxamide], at TYK2 JH2, the Kd is ≤ 100 nM. For the same molecule, the IC50 in experiment [1] was ≤ 500 nM.
Take `CNc1ncc(-c2nc3ccc(N4CCOCC4)cn3n2)c2cc(NC(=O)C3CC3)nnc12` [Example 885, N-(8-(methylamino)-5-(6-morpholino-[1,2,4]triazolo[1,5-a]pyridin-2-yl)pyrido[3,4-c]pyridazin-3-yl)cyclopropanecarboxamide]: the Kd at TYK2 JH2 is ≤ 100 nM. Further, the IC50 in experiment [1] is ≤ 500 nM.
Turning to `CNc1ncc(-c2nc3ccc(N4CCOCC4)cn3n2)c2cc(NC(=O)C3(F)CC3)nnc12` [Example 886, 1-fluoro-N-(8-(methylamino)-5-(6-morpholino-[1,2,4]triazolo[1,5-a]pyridin-2-yl)pyrido[3,4-c]pyridazin-3-yl)cyclopropane-1-carboxamide], the Kd at TYK2 JH2 is ≤ 100 nM. For the same molecule, the IC50 in experiment [1] is ≤ 500 nM.
Consider `CNc1ncc(-c2nc3c(F)cccn3n2)c2cc(NC(=O)C3CC3)nnc12` [Example 887, N-(5-(8-fluoro-[1,2,4]triazolo[1,5-a]pyridin-2-yl)-8-(methylamino)pyrido[3,4-c]pyridazin-3-yl)cyclopropanecarboxamide], for which, on TYK2 JH2, the Kd was ≤ 100 nM. The IC50 in experiment [1] is ≤ 500 nM.
Turning to `CNc1ncc(-c2nc3cc(OC)ccc3o2)c2cc(NC(=O)C3CC3)nnc12` [Example 888, N-(5-(5-methoxybenzo[d]oxazol-2-yl)-8-(methylamino)pyrido[3,4-c]pyridazin-3-yl)cyclopropanecarboxamide], at TYK2 JH2, the Kd was ≤ 100 nM. Besides, the IC50 in experiment [1] is ≤ 500 nM.
In the case of `CNc1ncc(C#Cc2ccc(OC)cn2)c2c(Cl)c(NC(=O)C3CC3)ncc12` [Example 889, N-(4-chloro-5-((5-methoxypyridin-2-yl)ethynyl)-8-(methylamino)-2,7-naphthyridin-3-yl)cyclopropanecarboxamide], the Kd at TYK2 JH2 is ≤ 100 nM. In experiment [1], the IC50 is > 500 nM.
As for `CNc1ncc(-c2nc3cc(N4CCO[C@@H](C)C4)ccc3o2)c2cc(NC(=O)C3CC3)nnc12` [Example 890, (S)—N-(8-(methylamino)-5-(5-(2-methylmorpholino)benzo[d]oxazol-2-yl)pyrido[3,4-c]pyridazin-3-yl)cyclopropanecarboxamide], the Kd at TYK2 JH2 is ≤ 100 nM. Also, the IC50 in experiment [1] was ≤ 500 nM.
Turning to `CNc1ncc(C#Cc2ccc(OC3CN(C(C)=O)C3)cc2)c2cc(NC(=O)C3CC3)nnc12` [Example 893, N-(5-((4-((1-acetylazetidin-3-yl)oxy)phenyl)ethynyl)-8-(methylamino)pyrido[3,4-c]pyridazin-3-yl)cyclopropanecarboxamide], the Kd on TYK2 JH2 is ≤ 100 nM. Moreover, the IC50 in experiment [1] is ≤ 500 nM.
On to `CNc1ncc(C#Cc2ccc3c(c2)OCCO3)c2cc(NC(=O)C3CC3)ncc12` [Example 894, N-(5-((2,3-dihydrobenzo[b][1,4]dioxin-6-yl)ethynyl)-8-(methylamino)-2,7-naphthyridin-3-yl)cyclopropanecarboxamide], for which, at TYK2 JH2, the Kd is ≤ 100 nM. In addition, the IC50 in experiment [1] is ≤ 500 nM.
As to `CNc1ncc(C#Cc2ccc3c(c2)OC=CO3)c2cc(NC(=O)C3CC3)ncc12` [Example 895, N-(5-(benzo[b][1,4]dioxin-6-ylethynyl)-8-(methylamino)-2,7-naphthyridin-3-yl)cyclopropanecarboxamide], the Kd at TYK2 JH2 was ≤ 100 nM. The IC50 in experiment [1] was ≤ 500 nM.
For `CNc1ncc(C#Cc2ccc(C3CCN(C)C3=O)cc2)c2cc(NC(=O)C3CC3)ncc12` (stereo not drawn) [Example 896, N-(5-((4-(1-methyl-2-oxopyrrolidin-3-yl)phenyl)ethynyl)-8-(methylamino)-2,7-naphthyridin-3-yl)cyclopropanecarboxamide] the same measures were ≤ 100 nM and ≤ 500 nM.
